Here are results for 24 molecules from patent publication US9512126B2, “Substituted imidazopyridazines” (Bayer Intellectual Property GmbH, priority 2012, dated 2016).

A short description of the data set: In vitro metabolic stability in rat hepatocytes (including calculation of hepatic in vivo blood clearance). Particulars: Han Wistar, hepatocytes (freshly isolated, suspension), read-out: CL (hepatic in vivo blood clearance) (converted). In kind it is in vitro ADME. As for the experimental part:
Investigation of In Vitro Metabolic Stability in Rat Hepatocytes (Including Calculation of Hepatic In Vivo Blood Clearance (CL))
Hepatocytes from Han Wistar rats were isolated via a 2-step perfusion method. After perfusion, the liver was carefully removed from the rat: the liver capsule was opened and the hepatocytes were gently shaken out into a Petri dish with ice-cold WME. The resulting cell suspension was filtered through sterile gaze in 50 ml falcon tubes and centrifuged at 50×g for 3 min at room temperature. The cell pellet was resuspended in 30 ml WME and centrifuged through a Percoll® gradient for 2 times at 100×g. The hepatocytes were washed again with Williams' medium E (WME) and resuspended in medium containing 5% FCS. Cell viability was determined by trypan blue exclusion.
For the metabolic stability assay liver cells were distributed in WME containing 5% FCS to glass vials at a density of 1.0×10^6 vital cells/ml. The test compound was added to a final concentration of 1 μM. During incubation, the hepatocyte suspensions were continuously shaken and aliquots were taken at 2, 8, 16, 30, 45 and 90 min, to which equal volumes of cold methanol were immediately added.
Samples were frozen at −20° C. over night, after subsequently centrifuged for 15 minutes at 3000 rpm and the supernatant was analyzed with an Agilent 1200 HPLC-system with LCMS/MS detection.
The half-life of a test compound was determined from the concentration-time plot. From the half-life the intrinsic clearances were calculated. Together with the additional parameters liver blood flow, amount of liver cells in vivo and in vitro. The hepatic in vivo blood clearance (CL) and the maximal oral bioavailability (Fmax) was calculated. The following parameter values were used: Liver blood flow—4.2 L/h/kg rat; specific liver weight—32 g/kg rat body weight; liver cells in vivo—1.1×10^8 cells/g liver, liver cells in vitro—0.5×10^6 ml.
Take `Cc1cc(-c2cnc3c(NCCC(F)(F)F)cc(C(O)c4cccc(F)c4O)nn23)ccc1C(=O)NC1CC1` (racemic) [Example 3, (RS)—N-Cyclopropyl-4-{6-[(3-fluoro-2-hydroxyphenyl)(hydroxy)methyl]-8-[(3,3,3-trifluoropropyl)amino]imidazo[1,2-b]pyridazin-3-yl}-2-methylbenzamide]: the CLhep predicted at 1 μM was 56.7 mL/min/kg. With `Cc1cc(-c2cnc3c(NCCC(F)(F)F)cc(C(C)(O)c4cccc(F)c4O)nn23)ccc1C(=O)NC1CC1` (racemic) [Example 4, (RS)—N-Cyclopropyl-4-{6-[1-(3-fluoro-2-hydroxyphenyl)-1-hydroxyethyl]-8-[(3,3,3-trifluoropropyl)amino]imidazo[1,2-b]pyridazin-3-yl}-2-methylbenzamide], the CLhep predicted at 1 μM is 45 mL/min/kg. Turning to `Cc1cc(-c2cnc3c(NCCC(F)(F)F)cc(C(F)c4cccc(F)c4)nn23)ccc1C(=O)NC1CC1` (racemic) [Example 5, (RS)—N-Cyclopropyl-4-{6-[fluoro(3-fluorophenyl)methyl]-8-[(3,3,3-trifluoropropyl)amino]imidazo[1,2-b]pyridazin-3-yl}-2-methylbenzamide], the CLhep predicted at 1 μM is 35 mL/min/kg. As for `Cc1cc(-c2cnc3c(NCCC(F)(F)F)cc(C(O)c4cc(F)ccc4F)nn23)ccc1C(=O)NC1CC1` (racemic) [Example 11, (RS)—N-Cyclopropyl-4-{6-[(2,5-difluorophenyl)(hydroxy)methyl]-8-[(3,3,3-trifluoropropyl)amino]imidazo[1,2-b]pyridazin-3-yl}-2-methylbenzamide], the CLhep predicted at 1 μM was 38.3 mL/min/kg. As to `COc1ccc(Cc2cc(NCCC(F)(F)F)c3ncc(-c4ccc(C(=O)NC5CC5)c(C)c4)n3n2)cc1F` [Comparative Example 1, N-Cyclopropyl-4-{6-(3-fluoro-4-methoxybenzyl)-8-[(3,3,3-trifluoropropyl)amino]imidazo[1,2-b]pyridazin-3-yl}-2-methylbenzamide, reference compound], the CLhep predicted at 1 μM is 50 mL/min/kg. For `Cc1cc(-c2cnc3c(NCCC(F)(F)F)cc(Cc4cccc(F)c4O)nn23)ccc1C(=O)NC1CC1` [Comparative Example 2, N-Cyclopropyl-4-{6-(3-fluoro-2-hydroxybenzyl)-8-[(3,3,3-trifluoropropyl)amino]imidazo[1,2-b]pyridazin-3-yl}-2-methylbenzamide, reference compound], the CLhep predicted at 1 μM was 68.3 mL/min/kg. As to `Cc1cc(-c2cnc3c(NCCC(F)(F)F)cc(Cc4cccc(F)c4)nn23)ccc1C(=O)NC1CC1` [Comparative Example 3, N-Cyclopropyl-4-{6-(3-fluorobenzyl)-8-[(3,3,3-trifluoropropyl)amino]imidazo[1,2-b]pyridazin-3-yl}-2-methylbenzamide, reference compound], the CLhep predicted at 1 μM was 40 mL/min/kg. As for `COc1cccc(Cc2cc(NCCC(F)(F)F)c3ncc(-c4ccc(C(=O)NC5CC5)c(C)c4)n3n2)c1` [Comparative Example 4, N-cyclopropyl-4-{6-(3-methoxybenzyl)-8-[(3,3,3-trifluoropropyl)amino]imidazo[1,2-b]pyridazin-3-yl}-2-methylbenzamide, reference compound], the CLhep predicted at 1 μM was 56.7 mL/min/kg. In the case of `COc1ccc(Cc2cc(NCCC(F)(F)F)c3ncc(-c4ccc(C(=O)NC5CC5)c(C)c4)n3n2)cc1` [Comparative Example 5, N-Cyclopropyl-4-{6-(4-methoxybenzyl)-8-[(3,3,3-trifluoropropyl)amino]imidazo[1,2-b]pyridazin-3-yl}-2-methylbenzamide, reference compound], the CLhep predicted at 1 μM was 45 mL/min/kg. The result for `C=C(c1ccc(OC)c(F)c1)c1cc(NCCC(F)(F)F)c2ncc(-c3ccc(C(=O)NC4CC4)c(C)c3)n2n1` [Example 1, N-Cyclopropyl-4-{6-[1-(3-fluoro-4-methoxyphenyl)ethenyl]-8-[(3,3,3-trifluoropropyl)amino]imidazo[1,2-b]pyridazin-3-yl}-2-methylbenzamide] reads 43.3 mL/min/kg. The result for `COc1ccc(C(F)(F)c2cc(NCCC(F)(F)F)c3ncc(-c4ccc(C(=O)NC5CC5)c(C)c4)n3n2)cc1F` [Example 2, N-Cyclopropyl-4-{6-[difluoro(3-fluoro-4-methoxyphenyl)methyl]-8-[(3,3,3-trifluoropropyl)amino]imidazo[1,2-b]pyridazin-3-yl}-2-methylbenzamide] reads 25 mL/min/kg. Consider `COc1cccc(C(=O)c2cc(NCCC(F)(F)F)c3ncc(-c4ccc(C(=O)NC5CC5)c(C)c4)n3n2)c1` [Example 7, N-Cyclopropyl-4-{6-(3-methoxybenzoyl)-8-[(3,3,3-trifluoropropyl)amino]imidazo[1,2-b]pyridazin-3-yl}-2-methylbenzamide], for which the CLhep predicted at 1 μM is 51.7 mL/min/kg. The same measure for `C=C(c1cccc(OC)c1)c1cc(NCCC(F)(F)F)c2ncc(-c3ccc(C(=O)NC4CC4)c(C)c3)n2n1` [Example 8, N-Cyclopropyl-4-{6-[1-(3-methoxyphenyl)vinyl]-8-[(3,3,3-trifluoropropyl)amino]imidazo[1,2-b]pyridazin-3-yl}-2-methylbenzamide]: 30 mL/min/kg.

`COc1ccc(C(=O)c2cc(NCCC(F)(F)F)c3ncc(-c4ccc(C(=O)NC5CC5)c(C)c4)n3n2)cc1` [Example 9, N-Cyclopropyl-4-{6-(4-methoxybenzoyl)-8-[(3,3,3-trifluoropropyl)amino]imidazo[1,2-b]pyridazin-3-yl}-2-methylbenzamide]: the CLhep predicted at 1 μM was 20 mL/min/kg. The same measure for `C=C(c1ccc(OC)cc1)c1cc(NCCC(F)(F)F)c2ncc(-c3ccc(C(=O)NC4CC4)c(C)c3)n2n1` [Example 10, N-Cyclopropyl-4-{6-[1-(4-methoxyphenyl)vinyl]-8-[(3,3,3-trifluoropropyl)amino]imidazo[1,2-b]pyridazin-3-yl}-2-methylbenzamide]: 36.7 mL/min/kg; for `Cc1cc(-c2cnc3c(NCCC(F)(F)F)cc(C(=O)c4cc(F)ccc4F)nn23)ccc1C(=O)NC1CC1` [Example 12, N-Cyclopropyl-4-{6-(2,5-difluorobenzoyl)-8-[(3,3,3-trifluoropropyl)amino]imidazo[1,2-b]pyridazin-3-yl}-2-methylbenzamide]: 23.3 mL/min/kg; for `COc1ccc(C(=O)c2cc(NCCC(F)(F)F)c3ncc(-c4ccc(C(=O)NC5CC5)c(C)c4)n3n2)cc1F` [Example 13, N-Cyclopropyl-4-{6-(3-fluoro-4-methoxybenzoyl)-8-[(3,3,3-trifluoropropyl)amino]imidazo[1,2-b]pyridazin-3-yl}-2-methylbenzamide]: 18.3 mL/min/kg.

On to `Cc1cc(-c2cnc3c(NCCC(F)(F)F)cc(C(=O)c4cccc(F)c4F)nn23)ccc1C(=O)NC1CC1` [Example 14, N-Cyclopropyl-4-{6-(2,3-difluorobenzoyl)-8-[(3,3,3-trifluoropropyl)amino]imidazo[1,2-b]pyridazin-3-yl}-2-methylbenzamide], for which the CLhep predicted at 1 μM is 35 mL/min/kg. In the case of `C=C(c1cc(NCCC(F)(F)F)c2ncc(-c3ccc(C(=O)NC4CC4)c(C)c3)n2n1)c1cccc(F)c1F` [Example 15, N-Cyclopropyl-4-{6-[1-(2,3-difluorophenyl)vinyl]-8-[(3,3,3-trifluoropropyl)amino]imidazo[1,2-b]pyridazin-3-yl}-2-methylbenzamide], the CLhep predicted at 1 μM is 33.3 mL/min/kg. With `COc1ccc(C(F)(F)c2cc(NCCC(F)(F)F)c3ncc(-c4ccc(C(=O)NC5CC5)c(C)c4)n3n2)cc1` [Example 16, N-Cyclopropyl-4-{6-[difluoro(4-methoxyphenyl)methyl]-8-[(3,3,3-trifluoropropyl)amino]imidazo[1,2-b]pyridazin-3-yl}-2-methylbenzamide], the CLhep predicted at 1 μM is 31.7 mL/min/kg. The result for `Cc1cc(-c2cnc3c(NCCC(F)(F)F)cc(C4(c5cccc(F)c5F)CC4)nn23)ccc1C(=O)NC1CC1` [Example 17, N-Cyclopropyl-4-{6-[1-(2,3-difluorophenyl)cyclopropyl]-8-[(3,3,3-trifluoropropyl)amino]imidazo[1,2-b]pyridazin-3-yl}-2-methylbenzamide] reads 35 mL/min/kg.

In the case of `Cc1cc(-c2cnc3c(NCCC(F)(F)F)cc(C(F)(F)c4cccc(F)c4F)nn23)ccc1C(=O)NC1CC1` [Example 18, N-Cyclopropyl-4-{6-[(2,3-difluorophenyl)(difluoro)methyl]-8-[(3,3,3-trifluoropropyl)amino]imidazo[1,2-b]pyridazin-3-yl}-2-methylbenzamide], the CLhep predicted at 1 μM is 16.7 mL/min/kg. The result for `C=C(c1cc(NCCC(F)(F)F)c2ncc(-c3ccc(C(=O)NC4CC4)c(C)c3)n2n1)c1cc(F)ccc1O` [Example 22, N-cyclopropyl-4-{6-[1-(5-fluoro-2-hydroxyphenyl)ethenyl]-8-[(3,3,3-trifluoropropyl)amino]imidazo[1,2-b]pyridazin-3-yl}-2-methylbenzamide] reads 50 mL/min/kg. The result for `Cc1cc(-c2cnc3c(NCCC(F)(F)F)cc(C4(c5cc(F)ccc5O)CC4)nn23)ccc1C(=O)NC1CC1` [Example 23, N-cyclopropyl-4-{6-[1-(5-fluoro-2-hydroxyphenyl)cyclopropyl]-8-[(3,3,3-trifluoropropyl)amino]imidazo[1,2-b]pyridazin-3-yl}-2-methylbenzamide] reads 41.7 mL/min/kg.
